Assay results from PMC10178421 (2023).

Experiments:
[1] = system: CPG-tel26 (DNA, G4) TTAGGGTTAGGGTTAGGGTTAGGGTT; experiment: G4-CPG affinity chromatography; conditions: 50 mM KCl; 10% DMSO, 10% ethanol; 60 μM compound; error ±2%
[2] = system: CPG-c-myc (DNA, G4) TGGGGAGGGTGGGGAGGGTGGGGAAGGTGGGGA; experiment: G4-CPG affinity chromatography; conditions: 50 mM KCl; 10% DMSO, 10% ethanol; 60 μM compound; error ±2%
[3] = system: CPG-ds27 (DNA, hairpin) CGCGAATTCGCGTTTCGCGAATTCGCG; experiment: G4-CPG affinity chromatography; conditions: 50 mM KCl; 10% DMSO, 10% ethanol; 60 μM compound; error ±2%
[4] = system: Pu22 (DNA, G4) TGAGGGTGGGTAGGGTGGGTAA; experiment: CD melting (265 nm); conditions: no added metal cations; 10 mM Tris-HCl, pH 7; 2 μM DNA, 20 μM ligand (10 equiv)
[5] = system: tel26 (DNA, G4) TTAGGGTTAGGGTTAGGGTTAGGGTT; experiment: fluorescence titration (ligand quenching); conditions: 20 mM KCl, 5 mM potassium phosphate; pH 7, 20 °C; 2 μM ligand; independent equivalent-sites fit; average over multiple binding events
[6] = system: Pu22 (DNA, G4) TGAGGGTGGGTAGGGTGGGTAA; experiment: fluorescence titration (ligand quenching); conditions: 20 mM KCl, 5 mM potassium phosphate; pH 7, 20 °C; 2 μM ligand; independent equivalent-sites fit; average over multiple binding events
[7] = system: ds12 (DNA, duplex) CGCGAATTCGCG; experiment: fluorescence titration (ligand quenching); conditions: 20 mM KCl, 5 mM potassium phosphate; pH 7, 20 °C; 2 μM ligand; independent equivalent-sites fit; average over multiple binding events

Row | Bound Ligand (%) [1] [%] | Bound Ligand (%) [2] [%] | Bound Ligand (%) [3] [%] | ΔTm [4] | Kb [5] | Kb [6] | Kb [7] | Compound
1 | 48 | 56 | 38 |  |  |  |  | C=CC12C(=O)C(C)(O)C3CC1c1c4c(cc(C)c1C31CCc3c(ccc(O)c3C)C21O)CCc1c-4ccc(O)c1C (stereo not shown)
2 | 2 | 4 | 0 |  |  |  |  | C=Cc1c(C)c(O)cc2c1-c1ccc(O)c(C)c1CC2
3 | 0 | 3 | 0 |  |  |  |  | C=Cc1c(C)c(O[C@@H]2O[C@H](CO)[C@@H](O)[C@H](O)[C@H]2O)cc2c1-c1ccc(O)c(C)c1CC2
4 | 9 | 8 | 2 | +4 °C |  |  |  | Cc1c(O)cc2c3c1CCc1cc(O[C@H]4O[C@H](CO)[C@@H](O)[C@H](O)[C@H]4O)c(C)c(c1-3)CC2
5 | 19 | 18 | 0 |  | (2.3 ± 0.9) × 10^6 M^-1 | (4.4 ± 0.7) × 10^5 M^-1 | (6.0 ± 1.7) × 10^5 M^-1 | C=CC12C3=C(CCc4c3ccc(O)c4C)C(CC1c1cc(C)cc3c1-c1ccc(O)c(C)c1CC3)C(C)(O)C2O (stereo not shown)
6 | 0 | 0 | 0 |  |  |  |  | C=CC12C(=O)C(C)(O)C(CC1c1cc(C)cc3c1-c1ccc(O)c(C)c1CC3)C1=C2c2ccc(OC)c(C)c2CC1 (stereo not shown)
7 | 0 | 0 | 0 |  |  |  |  | C=Cc1c(C)c(O[C@H]2O[C@H](CO)[C@@H](O)[C@H](O)[C@H]2O)cc2c1-c1ccc(O)c(C)c1CC2
